Results taken from US6743824B2 (Somerset Pharmaceuticals, Inc., priority 1996, dated 2004).
Structures can show the parent of a compound that is named as a salt.

How the values were obtained:
[1] = system: peripheral neuropathy caused by vincristine; assay: Treatment of peripheral neuropathy caused by vincristine (Example 1); assay type: in vivo, human; conditions: patient with endometrial carcinoma on vincristine 1.4 mg/m^2 weekly; 5 mg orally twice a day
Method: A patient with endometrial carcinoma is given an intravenous bolus injection of vincristine at a dose of 1.4 mg/m^2 weekly. The toxic effects of vincristine cause sensory loss in the fingers and toes, a loss of the ankle jerk reflex, weakness and postural hypotension. […] During this time, therapy with vincristine is continued and evaluations of both tumor response and toxic side effects are carried out by a physician on a weekly basis. After continued therapy, symptoms associated with peripheral neuropathy subside. At this point, the dosage of vincristine is increased to 1.8 mg/m^2 and the process is continued.

[2] = system: axotomized rat facial motor neurons; conditions: Salo et al. 1992; cited from earlier work
spinal motor neurons = conditions: rat; Iwasaki et al. 1994; cited from earlier work
[3] = system: cultured spinal cord neuron; conditions: Iwasaki et al. 1994; cited from earlier work
CNS neurons = conditions: toxins such as MPP+, kainic acid or DSP-4; cited from earlier work
retinal ganglion cells = conditions: rat optic nerve crush model; Buys et al. 1994; cited from earlier work

Row | Structure (SMILES) | symptoms associated with peripheral neuropathy [1] | rescue of axotomized facial motor neurons [2] | effect on axotomy-induced cell death in spinal motor neurons (spinal motor neurons) | neurite outgrowth [3] | survival of CNS neurons after exposure to chemical toxins (CNS neurons) | survival of retinal ganglion cells at risk of undergoing apoptosis (retinal ganglion cells)
1 | C#CCN(C)[C@H](C)Cc1ccccc1 [selegiline hydrochloride] | subside |  |  |  |  | 
2 | C#CCN(C)C(C)Cc1ccccc1 (stereo not drawn) [selegiline, R-(−)-N-methyl-N-(prop-2-ynyl)-2-aminophenylpropane] |  | capable of rescuing | neuroprotective effect | enhance neurite outgrowth | increase the survival | increase the survival
